The record followed here is ChEMBL document CHEMBL1201862, “PubChem BioAssay data set” (2004).

What all share (test): inhibition of tumour cell growth, NCI panel, 48 h
Assay [1] concerns SF-268.
Assay [2] deals with BT-549.
The subject of assay [3] is SK-MEL-2.
Assay [4] relates to SN12C.
The subject of assay [5] is MDA-N.
In assay [6] the test system is NCI/ADR-RES.
Assay [7] deals with Hs-578T.
In assay [8] the test system is UACC-62.
Assay [9] has as its system SNB-19.
The subject of assay [10] is SK-MEL-5.
Assay [11] has as its system U-251.
The test system of assay [12] is UO-31.
The subject of assay [13] is NCI-H226.
Assay [14] deals with HCT-116.
In assay [15] the test system is COLO 205.
The subject of assay [16] is SK-MEL-28.
Assay [17] concerns Malme-3M.
For assay [18], the system named is ACHN.
The test system of assay [19] is SF-539.

The structures appear in SMILES notation.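 Test compounds were applied to cells in 96-well plates for 48 hours at 5 doses. GI50 = concentration required for 50% inhibition of growth.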 Active and inactive are the calls of the source. No stated cut-off is given here; in the data, active = GI50 up to about 1.1 µM and inactive = higher. A value given as a limit tells only on which side of the number the result lay.

On to `Cc1ccc(/N=N/c2c(O)ccc3ccccc23)c(C)c1`, for which the GI50 in [1], in [2], in assay [3], in assay [4], in assay [5] and in assay [6] was > 100 µM (inactive) in each case. The GI50 in assay [7], in assay [8], in [9], in [10], in assay [11] and in assay [12] was > 100 µM (inactive) throughout. Moreover, the GI50 in [13], in [14], in assay [15] and in [16] was > 100 µM (inactive) in each case.

Regarding `c1cc2c(cc1C(N1CCNCC1)N1CCNCC1)OCO2`, the GI50 in assay [1], in [2], in assay [17], in assay [3], in [4] and in [5] was > 100 µM (inactive) each time. Further, the GI50 in assay [6], in assay [7], in assay [8], in assay [9], in assay [10] and in assay [11] was > 100 µM (inactive) each time. Besides, the GI50 in [12], in assay [18], in [13], in assay [14], in [19] and in assay [15] was > 100 µM (inactive) each time. In addition, the GI50 in [16] is > 100 µM (inactive).

For the compound `c1ccc(N/N=N/c2ccc(-c3nc4ccccc4[nH]3)cc2)nc1`, the GI50 is 37.5 µM (inactive) in assay [2]; 15.6 µM (inactive) in assay [17]; 27 µM (inactive) in assay [3]; 15.3 µM (inactive) in [4]; 16.7 µM (inactive) in assay [5]; 30.3 µM (inactive) in assay [6]. Further, the GI50 in assay [7] is 19.8 µM (inactive); in assay [9], 20.8 µM (inactive); in [10], 27.6 µM (inactive); in [11], 16.5 µM (inactive); in [12] it was 19.4 µM (inactive); in [18], 16.6 µM (inactive). Further, the GI50 is 26.3 µM (inactive) in assay [13]; 7.11 µM (inactive) in assay [14]; 17.1 µM (inactive) in assay [19]; 27 µM (inactive) in assay [15]; 20.7 µM (inactive) in assay [16].

On to `CC(Cn1c(=O)oc2ccccc21)N(C)C` (stereo not drawn), for which the GI50 in [1], in assay [2], in assay [17], in assay [3], in assay [4] and in assay [5] was > 100 µM (inactive) each time. Further, the GI50 in assay [6], in assay [7], in assay [8], in [9], in [10] and in assay [11] was > 100 µM (inactive) throughout. Also, the GI50 in [18], in assay [13], in assay [14], in [19], in assay [15] and in assay [16] was > 100 µM (inactive) in each case.

`CC(C)CCCC(C)[C@H]1CCC2[C@@H]3CCC4Cc5nc6c(nc5C[C@]4(C)C3CC[C@@]21C)CC1CC[C@@H]2C(CC[C@@]3(C)C2CC[C@@H]3O)[C@@]1(C)C6` (stereo partly drawn): the GI50 in [1], in [2], in [17], in assay [3], in assay [4] and in assay [5] was > 100 µM (inactive) in each case. Besides, the GI50 in assay [6], in assay [7], in [8], in assay [9], in assay [10] and in assay [11] was > 100 µM (inactive) each time. Also, the GI50 in assay [12], in assay [18], in [13], in assay [14], in assay [19] and in assay [15] was > 100 µM (inactive) each time. Further, in assay [16], the GI50 is > 100 µM (inactive).

For `C[n+]1c2ccccc2n2c3ccccc3c(NCCc3ccccn3)c(C#N)c21`, the GI50 in [1] was 2.36 µM (inactive); in [2], 5.89 µM (inactive); in assay [17] it was 2.81 µM (inactive); in assay [3], 2.61 µM (inactive); in assay [4] it was 1.23 µM (inactive); in assay [5], 1.64 µM (inactive). The GI50 is 13.8 µM (inactive) in [6]; 2.81 µM (inactive) in assay [7]; 2.53 µM (inactive) in [8]; 3.33 µM (inactive) in [9]; 2.9 µM (inactive) in assay [10]; 1.68 µM (inactive) in [11]. In addition, the GI50 in assay [12] is 1.76 µM (inactive); in [18], 1.49 µM (inactive); in assay [13], 2.55 µM (inactive); in assay [14] it was 0.933 µM (active); in assay [19], 1.99 µM (inactive); in assay [15] it was 1.68 µM (inactive). For the same compound, in assay [16], the GI50 was 2.32 µM (inactive).

As to `CN(C)CCCNc1ccc([N+](=O)[O-])c2nc3ccccc3c(N)c12`, the GI50 in assay [1] is 0.839 µM (active); in [2], 1.48 µM (inactive); in assay [17], 0.51 µM (active); in assay [3] it was 1.38 µM (inactive); in assay [4], 0.771 µM (active); in assay [5], 0.458 µM (active). The GI50 in assay [6] was 0.397 µM (active); in assay [7], 3.33 µM (inactive); in assay [8], 1.25 µM (inactive); in [9] it was 0.635 µM (active); in assay [10], 1.21 µM (inactive); in assay [11] it was 0.738 µM (active). Besides, the GI50 in assay [12] is 0.942 µM (active); in [18], 0.205 µM (active); in [13], 5.14 µM (inactive); in assay [14], 0.124 µM (active); in [19], 0.449 µM (active); in [15] it was 0.243 µM (active). The GI50 in assay [16] is 2.44 µM (inactive).

Consider `Brc1ccc(-c2nc(-c3ccc(Br)cc3)n(-c3ccccc3)n2)cc1`, for which the GI50 in assay [1], in [2], in [3], in assay [4], in [5] and in assay [6] was > 100 µM (inactive) throughout. In addition, the GI50 in assay [7], in assay [8], in assay [9], in [10], in [11] and in assay [12] was > 100 µM (inactive) in each case. The GI50 in assay [18] was > 100 µM (inactive); in assay [13] it was > 100 µM (inactive); in assay [14], 38 µM (inactive); in assay [19] it was > 100 µM (inactive); in assay [15] it was 27.2 µM (inactive); in assay [16], > 100 µM (inactive).

As for `Cc1nc2c(=O)[nH]ncc2[nH]1`, the GI50 in assay [1], in [2], in assay [3], in [4], in [5] and in assay [6] was > 100 µM (inactive) each time. The GI50 in assay [7], in assay [8], in assay [9], in assay [10], in assay [11] and in [12] was > 100 µM (inactive) in each case. Also, the GI50 in assay [18], in assay [13], in assay [14], in assay [19], in assay [15] and in assay [16] was > 100 µM (inactive) throughout.

Turning to `COc1ccc2[nH]cc(CCNC(=O)[C@H](Cc3ccc(O)cc3)NC(=O)[C@@H](NCC(F)(F)F)C(C)C)c2c1`, the GI50 is 67.5 µM (inactive) in assay [2]; > 100 µM (inactive) in [17]; 58.2 µM (inactive) in assay [3]; > 100 µM (inactive) in assay [4]; 45.1 µM (inactive) in assay [5]; > 100 µM (inactive) in assay [6]. The GI50 in assay [7] is 31 µM (inactive); in assay [8], > 100 µM (inactive); in assay [9], > 100 µM (inactive); in assay [11] it was 74.1 µM (inactive); in [12], > 100 µM (inactive); in assay [18], > 100 µM (inactive). The GI50 in assay [13] was 41.8 µM (inactive); in [14] it was 95.5 µM (inactive); in assay [19], > 100 µM (inactive); in assay [15], 41.9 µM (inactive); in assay [16], 65.5 µM (inactive).

In the case of `CN(C)C(=O)C1CCN(Cc2c[nH]c3ccccc23)CC1`, the GI50 in assay [1], in assay [2], in assay [17], in assay [3], in assay [4] and in assay [5] was > 100 µM (inactive) throughout. The GI50 in [6], in assay [7], in [8], in assay [9], in assay [10] and in assay [11] was > 100 µM (inactive) each time. The GI50 in [12], in assay [18], in assay [13], in [14], in assay [15] and in [16] was > 100 µM (inactive) each time.
